Earlier results, collected in publication PMC6856260 (Clinical Pharmacokinetics, 2019).
Read-outs that look alike come from different tables or passages of the source.

Key:
[1] = co-formulated with 5-CNAC
[2] = post-dose fasting periods of 15, 30, 60 and 120 min; oral, co-formulated with SNAC

Row | reduction of exposure of salmon calcitonin ([1]; meal 10 min after oral dosing versus 60 min post-dose fasting) | reduction of exposure of salmon calcitonin ([1]; meal 10 min after oral dosing versus 4 h post-dose fasting) [%] | Substance | effect of increasing post-dose fasting period on exposure (in words) [2]
1 | up to 30% | 41 | salmon calcitonin | –
2 | – | – | semaglutide: oral semaglutide co-formulated with SNAC | increasing semaglutide exposure
